# Reference: the NIST ThermoML archive (doi:10.1016/j.fluid.2014.11.020)
# ± gives the expanded uncertainty stated by the source.
# Test: activity coefficient (dimensionless); of the first substance listed, at infinite dilution; xn = mol fraction of the nth substance listed
# Details: Liquid, Chromatography, x1 = 0
Structure (SMILES),activity coefficient (323.15 K),activity coefficient (333.15 K),activity coefficient (343.15 K)
CCc1ccccc1 [ethylbenzene] + CN(C)c1cc[n+](COCCCOC[n+]2ccc(N(C)C)cc2)cc1.O=S(=O)([N-]S(=O)(=O)C(F)(F)F)C(F)(F)F.O=S(=O)([N-]S(=O)(=O)C(F)(F)F)C(F)(F)F,1.46 ± 0.1,1.49 ± 0.1,1.5 ± 0.1
CCc1ccccc1 [ethylbenzene] + Cn1cc[n+](COCCCOC[n+]2ccn(C)c2)c1.N#C[N-]C#N.N#C[N-]C#N,11.2 ± 0.77,10.9 ± 0.75,10.7 ± 0.73
CCc1ccccc1 [ethylbenzene] + Cn1cc[n+](COCCCOC[n+]2ccn(C)c2)c1.O=S(=O)([N-]S(=O)(=O)C(F)(F)F)C(F)(F)F.O=S(=O)([N-]S(=O)(=O)C(F)(F)F)C(F)(F)F,2.41 ± 0.16,2.44 ± 0.17,2.38 ± 0.16
CCc1ccccc1 [ethylbenzene] + N#C[N-]C#N.N#C[N-]C#N.c1ccc(Cn2cc[n+](COCCCOC[n+]3ccn(Cc4ccccc4)c3)c2)cc1,8.33 ± 0.57,8.08 ± 0.55,7.78 ± 0.53
CCCCCCC [heptane] + CCCCCCCCn1cc[n+](COCCC)c1C.N#C[N-]C#N,8.88 ± 0.61,8.18 ± 0.56,7.95 ± 0.54
CCCCCCC [heptane] + CCCCCCCCn1cc[n+](COCCC)c1C.O=S(=O)([N-]S(=O)(=O)C(F)(F)F)C(F)(F)F,4.64 ± 0.32,4.56 ± 0.31,3.98 ± 0.27
CCCCCCC [heptane] + CCCCCCCCn1cc[n+](COCCCOC[n+]2ccn(CCCCCCCC)c2C)c1C.N#C[N-]C#N.N#C[N-]C#N,11.6 ± 0.79,8.65 ± 0.59,8.8 ± 0.6
CCCCCCC [heptane] + CCCCCCCCn1cc[n+](COCCCOC[n+]2ccn(CCCCCCCC)c2C)c1C.O=S(=O)([N-]S(=O)(=O)C(F)(F)F)C(F)(F)F.O=S(=O)([N-]S(=O)(=O)C(F)(F)F)C(F)(F)F,4.67 ± 0.32,4.51 ± 0.31,4.49 ± 0.31
CCCCCCC [heptane] + CCCOC[n+]1ccc(N(C)C)cc1.O=S(=O)([N-]S(=O)(=O)C(F)(F)F)C(F)(F)F,15.8 ± 1.1,14.8 ± 1,13.9 ± 0.95
CCCCCCC [heptane] + CCCOC[n+]1ccn(C)c1.O=S(=O)([N-]S(=O)(=O)C(F)(F)F)C(F)(F)F,22.9 ± 1.6,20.4 ± 1.4,17.1 ± 1.2
CCCCCCC [heptane] + CCCOC[n+]1ccn(Cc2ccccc2)c1.N#C[N-]C#N,48 ± 3.3,44.9 ± 3.1,41.8 ± 2.9
CCCCCCC [heptane] + CCCOC[n+]1ccn(Cc2ccccc2)c1.O=S(=O)([N-]S(=O)(=O)C(F)(F)F)C(F)(F)F,12 ± 0.82,10.1 ± 0.69,9.58 ± 0.65
CCCCCCC [heptane] + CN(C)c1cc[n+](COCCCOC[n+]2ccc(N(C)C)cc2)cc1.O=S(=O)([N-]S(=O)(=O)C(F)(F)F)C(F)(F)F.O=S(=O)([N-]S(=O)(=O)C(F)(F)F)C(F)(F)F,28.9 ± 2,23.3 ± 1.6,24.3 ± 1.7
CCCCCCC [heptane] + Cn1cc[n+](COCCCOC[n+]2ccn(C)c2)c1.O=S(=O)([N-]S(=O)(=O)C(F)(F)F)C(F)(F)F.O=S(=O)([N-]S(=O)(=O)C(F)(F)F)C(F)(F)F,53 ± 3.6,34 ± 2.3,–
C=CCCCC [hex-1-ene] + CCCCCCCCn1cc[n+](COCCC)c1C.N#C[N-]C#N,4.34 ± 0.3,4.37 ± 0.3,3.94 ± 0.27
C=CCCCC [hex-1-ene] + CCCCCCCCn1cc[n+](COCCC)c1C.O=S(=O)([N-]S(=O)(=O)C(F)(F)F)C(F)(F)F,2.65 ± 0.18,2.38 ± 0.16,2.47 ± 0.17
C=CCCCC [hex-1-ene] + CCCCCCCCn1cc[n+](COCCCOC[n+]2ccn(CCCCCCCC)c2C)c1C.N#C[N-]C#N.N#C[N-]C#N,4.93 ± 0.34,4.41 ± 0.3,–
C=CCCCC [hex-1-ene] + CCCCCCCCn1cc[n+](COCCCOC[n+]2ccn(CCCCCCCC)c2C)c1C.O=S(=O)([N-]S(=O)(=O)C(F)(F)F)C(F)(F)F.O=S(=O)([N-]S(=O)(=O)C(F)(F)F)C(F)(F)F,2.33 ± 0.16,2.51 ± 0.17,2.35 ± 0.16
C=CCCCC [hex-1-ene] + CCCOC[n+]1ccc(N(C)C)cc1.O=S(=O)([N-]S(=O)(=O)C(F)(F)F)C(F)(F)F,6.62 ± 0.45,6.79 ± 0.46,5.24 ± 0.36
C=CCCCC [hex-1-ene] + CCCOC[n+]1ccn(C)c1.N#C[N-]C#N,28 ± 1.9,–,–
C=CCCCC [hex-1-ene] + CCCOC[n+]1ccn(Cc2ccccc2)c1.N#C[N-]C#N,15.9 ± 1.1,14.8 ± 1,–
C=CCCCC [hex-1-ene] + CCCOC[n+]1ccn(Cc2ccccc2)c1.O=S(=O)([N-]S(=O)(=O)C(F)(F)F)C(F)(F)F,5.09 ± 0.35,4.32 ± 0.29,4.05 ± 0.28
C=CCCCC [hex-1-ene] + CN(C)c1cc[n+](COCCCOC[n+]2ccc(N(C)C)cc2)cc1.O=S(=O)([N-]S(=O)(=O)C(F)(F)F)C(F)(F)F.O=S(=O)([N-]S(=O)(=O)C(F)(F)F)C(F)(F)F,9.4 ± 0.64,8.7 ± 0.59,7.95 ± 0.54

Structure (SMILES),activity coefficient (323.15 K),activity coefficient (333.15 K),activity coefficient (343.15 K)
C=CCCCC [hex-1-ene] + Cn1cc[n+](COCCCOC[n+]2ccn(C)c2)c1.O=S(=O)([N-]S(=O)(=O)C(F)(F)F)C(F)(F)F.O=S(=O)([N-]S(=O)(=O)C(F)(F)F)C(F)(F)F,15.1 ± 1,10.1 ± 0.69,–
CCCCCC [hexane] + CCCCCCCCn1cc[n+](COCCC)c1C.N#C[N-]C#N,7.08 ± 0.48,6.92 ± 0.47,6.8 ± 0.46
CCCCCC [hexane] + CCCCCCCCn1cc[n+](COCCC)c1C.O=S(=O)([N-]S(=O)(=O)C(F)(F)F)C(F)(F)F,3.82 ± 0.26,3.74 ± 0.25,3.12 ± 0.21
CCCCCC [hexane] + CCCCCCCCn1cc[n+](COCCCOC[n+]2ccn(CCCCCCCC)c2C)c1C.N#C[N-]C#N.N#C[N-]C#N,8.9 ± 0.6,–,–
CCCCCC [hexane] + CCCCCCCCn1cc[n+](COCCCOC[n+]2ccn(CCCCCCCC)c2C)c1C.O=S(=O)([N-]S(=O)(=O)C(F)(F)F)C(F)(F)F.O=S(=O)([N-]S(=O)(=O)C(F)(F)F)C(F)(F)F,3.74 ± 0.25,3.59 ± 0.24,3.45 ± 0.23
CCCCCC [hexane] + CCCOC[n+]1ccc(N(C)C)cc1.O=S(=O)([N-]S(=O)(=O)C(F)(F)F)C(F)(F)F,11.9 ± 0.81,11 ± 0.75,10.1 ± 0.69
CCCCCC [hexane] + CCCOC[n+]1ccn(C)c1.O=S(=O)([N-]S(=O)(=O)C(F)(F)F)C(F)(F)F,15.9 ± 1.1,13.3 ± 0.91,–
CCCCCC [hexane] + CCCOC[n+]1ccn(Cc2ccccc2)c1.N#C[N-]C#N,32.4 ± 2.2,–,–
CCCCCC [hexane] + CCCOC[n+]1ccn(Cc2ccccc2)c1.O=S(=O)([N-]S(=O)(=O)C(F)(F)F)C(F)(F)F,7.52 ± 0.51,7.21 ± 0.49,6.92 ± 0.47
CCCCCC [hexane] + CN(C)c1cc[n+](COCCCOC[n+]2ccc(N(C)C)cc2)cc1.O=S(=O)([N-]S(=O)(=O)C(F)(F)F)C(F)(F)F.O=S(=O)([N-]S(=O)(=O)C(F)(F)F)C(F)(F)F,7.4 ± 0.5,5.82 ± 0.4,4.7 ± 0.32
CCCCCC [hexane] + Cn1cc[n+](COCCCOC[n+]2ccn(C)c2)c1.O=S(=O)([N-]S(=O)(=O)C(F)(F)F)C(F)(F)F.O=S(=O)([N-]S(=O)(=O)C(F)(F)F)C(F)(F)F,18.2 ± 1.2,31 ± 2.1,–
CO [methanol] + CCCCCCCCn1cc[n+](COCCC)c1C.N#C[N-]C#N,0.32 ± 0.03,0.29 ± 0.03,0.28 ± 0.03
CO [methanol] + CCCCCCCCn1cc[n+](COCCC)c1C.O=S(=O)([N-]S(=O)(=O)C(F)(F)F)C(F)(F)F,0.98 ± 0.06,0.89 ± 0.06,0.85 ± 0.05
CO [methanol] + CCCCCCCCn1cc[n+](COCCCOC[n+]2ccn(CCCCCCCC)c2C)c1C.N#C[N-]C#N.N#C[N-]C#N,0.2 ± 0.03,0.2 ± 0.03,0.21 ± 0.03
CO [methanol] + CCCCCCCCn1cc[n+](COCCCOC[n+]2ccn(CCCCCCCC)c2C)c1C.O=S(=O)([N-]S(=O)(=O)C(F)(F)F)C(F)(F)F.O=S(=O)([N-]S(=O)(=O)C(F)(F)F)C(F)(F)F,0.57 ± 0.04,0.51 ± 0.04,0.49 ± 0.04
CO [methanol] + CCCOC[n+]1ccc(N(C)C)cc1.O=S(=O)([N-]S(=O)(=O)C(F)(F)F)C(F)(F)F,1.28 ± 0.08,1.23 ± 0.08,1.16 ± 0.07
CO [methanol] + CCCOC[n+]1ccn(C)c1.F[B-](F)(F)F,1.29 ± 0.08,1.2 ± 0.08,1.11 ± 0.07
CO [methanol] + CCCOC[n+]1ccn(C)c1.N#C[N-]C#N,0.44 ± 0.04,0.44 ± 0.04,0.45 ± 0.04
CO [methanol] + CCCOC[n+]1ccn(C)c1.O=S(=O)([N-]S(=O)(=O)C(F)(F)F)C(F)(F)F,1.2 ± 0.08,1.12 ± 0.07,1.04 ± 0.07
CO [methanol] + CCCOC[n+]1ccn(Cc2ccccc2)c1.F[B-](F)(F)F,1.13 ± 0.07,1.04 ± 0.07,0.97 ± 0.06
CO [methanol] + CCCOC[n+]1ccn(Cc2ccccc2)c1.N#C[N-]C#N,0.39 ± 0.03,0.4 ± 0.03,0.4 ± 0.03
CO [methanol] + CN(C)c1cc[n+](COCCCOC[n+]2ccc(N(C)C)cc2)cc1.O=S(=O)([N-]S(=O)(=O)C(F)(F)F)C(F)(F)F.O=S(=O)([N-]S(=O)(=O)C(F)(F)F)C(F)(F)F,0.91 ± 0.06,0.86 ± 0.06,0.79 ± 0.05
